Toxic doses and inconclusive results are not listed. The calls were made as follows: active = survival T/C of 150% or more; inactive = T/C below 125% in these data.
System: CD2F1 mice, L1210 leukemia ip, survival T/C
Assay: NCI In Vivo Anticancer Drug Screen. Data for tumor model L1210 Leukemia (intraperitoneal) in CD2F1 (CDF1) mice
Settings: endpoint: mean survival time, higher = longer survival
Procedure, shortened: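 Implant tumor; dose compound or vehicle; measure endpoint in both groups; report treated divided by control.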

[1] = dose: 50.0 mg/kg/injection, schedule: Q01DX009 (ip), vehicle: Klucel (hydroxypropylcellulose) (HPC)
[2] = dose: 100.0 mg/kg/injection, schedule: Q04DX003 (ip), vehicle: acetone
[3] = dose: 200.0 mg/kg/injection, schedule: Q04DX003 (ip), vehicle: acetone
[4] = dose: 100.0 mg/kg/injection, schedule: Q01DX009 (ip), vehicle: saline with Tween-80
[5] = dose: 100.0 mg/kg/injection, schedule: Q04DX003 (ip), vehicle: saline with Tween-80
[6] = dose: 200.0 mg/kg/injection, schedule: Q01DX009 (ip), vehicle: saline with Tween-80
[7] = dose: 200.0 mg/kg/injection, schedule: Q04DX003 (ip), vehicle: saline with Tween-80
[8] = dose: 400.0 mg/kg/injection, schedule: Q01DX009 (ip), vehicle: saline with Tween-80
[9] = dose: 400.0 mg/kg/injection, schedule: Q04DX003 (ip), vehicle: saline with Tween-80
[10] = dose: 100.0 mg/kg/injection, schedule: Q01DX001 (ip), vehicle: saline
[11] = dose: 100.0 mg/kg/injection, schedule: Q04DX002 (ip), vehicle: saline
[12] = dose: 200.0 mg/kg/injection, schedule: Q01DX001 (ip), vehicle: saline
[13] = dose: 25.0 mg/kg/injection, schedule: Q01DX009 (ip), vehicle: Klucel (hydroxypropylcellulose) (HPC)
[14] = dose: 400.0 mg/kg/injection, schedule: Q01DX001 (ip), vehicle: saline

Measured: T/C

CCCCC/C=C\C/C=C\CCCCCCCC(=O)OCC1CNP(=O)(N(CCCl)CCCl)O1 (configuration not stated)
inactive: dose: 6.25 mg/kg/injection, schedule: Q01DX009 (ip), vehicle: water 103 % of control | dose: 12.5 mg/kg/injection, schedule: Q01DX009 (ip), vehicle: water 95 % of control | dose: 23.3 mg/kg/injection, schedule: Q01DX001 (ip), vehicle: DMSO 101 % of control | dose: 25.0 mg/kg/injection, schedule: Q01DX009 (ip), vehicle: water 95 % of control | dose: 38.9 mg/kg/injection, schedule: Q01DX001 (ip), vehicle: DMSO 98 % of control | dose: 50.0 mg/kg/injection, schedule: Q01DX009 (ip), vehicle: water 97 % of control | dose: 64.8 mg/kg/injection, schedule: Q01DX001 (ip), vehicle: DMSO 98 % of control | dose: 100.0 mg/kg/injection, schedule: Q01DX009 (ip), vehicle: water 103 % of control | dose: 108.0 mg/kg/injection, schedule: Q01DX001 (ip), vehicle: DMSO 97 % of control | dose: 180.0 mg/kg/injection, schedule: Q01DX001 (ip), vehicle: DMSO 98 % of control | dose: 200.0 mg/kg/injection, schedule: Q01DX009 (ip), vehicle: water 103 % of control | dose: 300.0 mg/kg/injection, schedule: Q01DX001 (ip), vehicle: DMSO 97 % of control

CCOC(=O)/C(N=Nc1ccc(O)cc1)=C(\C)O
inactive: [1] 101 % of control | dose: 100.0 mg/kg/injection, schedule: Q01DX009 (ip), vehicle: Klucel (hydroxypropylcellulose) (HPC) 93 % of control | [2] 95 % of control | dose: 200.0 mg/kg/injection, schedule: Q01DX009 (ip), vehicle: Klucel (hydroxypropylcellulose) (HPC) 96 % of control | [3] 98 % of control

C[N+](C)(C)CCOC(=O)Nc1ccc(C(c2ccc(NC(=O)OCC[N+](C)(C)C)cc2)c2ccc(NC(=O)OCC[N+](C)(C)C)cc2)cc1
inactive: dose: 0.25 mg/kg/injection, schedule: Q04DX003 (ip), vehicle: saline with Tween-80 97 % of control | dose: 0.5 mg/kg/injection, schedule: Q04DX003 (ip), vehicle: saline with Tween-80 96 % of control | dose: 1.0 mg/kg/injection, schedule: Q04DX003 (ip), vehicle: saline with Tween-80 94 % of control

CC1(C)CCOC(CC(=O)OCc2ccccc2)=N1
inactive: [4] 96 % of control | [5] 93 % of control | [6] 96 % of control | [7] 92 % of control | [8] 95 % of control | [9] 88 % of control

COC(=O)c1cccc(C)c1O
inactive: [4] 102 % of control | [5] 97 % of control | [6] 98 % of control | [7] 96 % of control | [9] 93 % of control

CN(C)C1CCCC(OC(=O)c2ccccc2)C1 (configuration not stated)
inactive: dose: 25.0 mg/kg/injection, schedule: Q04DX002 (ip), vehicle: saline 97 % of control | dose: 50.0 mg/kg/injection, schedule: Q04DX002 (ip), vehicle: saline 105 % of control | [10] 101 % of control | [11] 94 % of control | [12] 100 % of control

CON(C)CCOC(=O)c1ccc([N+](=O)[O-])cc1
inactive: dose: 100.0 mg/kg/injection, schedule: Q01DX001 (ip), vehicle: saline with Tween-80 100 % of control | dose: 200.0 mg/kg/injection, schedule: Q01DX001 (ip), vehicle: saline with Tween-80 107 % of control | dose: 400.0 mg/kg/injection, schedule: Q01DX001 (ip), vehicle: saline with Tween-80 105 % of control

CCCCCC(C[N+](C)(C)C)C(=O)/C=C/c1ccc(Cl)cc1 (configuration not stated)
inactive: dose: 12.0 mg/kg/injection, schedule: Q01DX009 (ip), vehicle: Klucel (hydroxypropylcellulose) (HPC) 96 % of control | [13] 96 % of control | [1] 96 % of control

OCC1C(CO)C2CC1C1N=NN(c3ccccc3)C21 (configuration not stated)
inactive: dose: 100.0 mg/kg/injection, schedule: Q01DX001 (ip), vehicle: saline sonified 102 % of control | dose: 200.0 mg/kg/injection, schedule: Q01DX001 (ip), vehicle: saline sonified 100 % of control | dose: 400.0 mg/kg/injection, schedule: Q01DX001 (ip), vehicle: saline sonified 100 % of control

O=C(C(=O)N1CC2C=CC1C2)c1c[nH]c2ccccc12 (configuration not stated)
inactive: [4] 101 % of control | [5] 102 % of control | [6] 97 % of control | [7] 97 % of control | [8] 101 % of control | [9] 92 % of control

OCC1OC(Sc2cc(Cl)ccc2Cl)C(O)C(O)C1O (configuration not stated)
inactive: [10] 103 % of control | [12] 100 % of control | [14] 100 % of control

CSC(=C[N+](=O)[O-])SC
inactive: [13] 97 % of control | [1] 106 % of control

[N-]=[N+]=NCC1OC(OC2(CO)OC(CN=[N+]=[N-])C(O)C2O)C(O)C(O)C1O (configuration not stated)
inactive: dose: 50.0 mg/kg/injection, schedule: Q01DX009 (ip), vehicle: saline 102 % of control | dose: 100.0 mg/kg/injection, schedule: Q01DX009 (ip), vehicle: saline 102 % of control

CNc1ncnc2[nH]cc([N+](=O)[O-])c12
inactive: dose: 75.0 mg/kg/injection, schedule: Q01DX001 (ip), vehicle: saline 96 % of control | dose: 150.0 mg/kg/injection, schedule: Q01DX001 (ip), vehicle: saline 106 % of control | dose: 300.0 mg/kg/injection, schedule: Q01DX001 (ip), vehicle: saline 106 % of control

O=C([O-])c1ccccc1[I+]c1ccccc1
inactive: dose: 100.0 mg/kg/injection, schedule: Q01DX001 (ip), vehicle: Klucel (hydroxypropylcellulose) (HPC) 107 % of control | dose: 100.0 mg/kg/injection, schedule: Q01DX009 (ip), vehicle: saline sonified 102 % of control | [5] 103 % of control | dose: 200.0 mg/kg/injection, schedule: Q01DX001 (ip), vehicle: Klucel (hydroxypropylcellulose) (HPC) 93 % of control | dose: 200.0 mg/kg/injection, schedule: Q01DX009 (ip), vehicle: saline sonified 94 % of control | [7] 101 % of control | dose: 400.0 mg/kg/injection, schedule: Q01DX001 (ip), vehicle: Klucel (hydroxypropylcellulose) (HPC) 111 % of control | dose: 400.0 mg/kg/injection, schedule: Q01DX009 (ip), vehicle: saline sonified 102 % of control | [9] 101 % of control

CC(=O)C/C=C(\C)CCC=C(C)C
inactive: [2] 91 % of control | [3] 94 % of control | dose: 400.0 mg/kg/injection, schedule: Q04DX003 (ip), vehicle: acetone 98 % of control

CCCCCCCC(=O)Nc1ccc(C)c(C)c1
inactive: [4] 89 % of control | [6] 91 % of control | [8] 96 % of control

CC(C)=CC(C)=Nc1ccccc1
inactive: [10] 90 % of control | dose: 100.0 mg/kg/injection, schedule: Q04DX003 (ip), vehicle: saline 102 % of control | [12] 96 % of control | dose: 200.0 mg/kg/injection, schedule: Q04DX003 (ip), vehicle: saline 96 % of control | [14] 98 % of control | dose: 400.0 mg/kg/injection, schedule: Q04DX003 (ip), vehicle: saline 104 % of control

COc1ccc([N+](=O)[O-])cc1Br
inactive: [5] 100 % of control | [7] 102 % of control | [9] 102 % of control

O=C(O)C1(C(=O)O)CCC1
inactive: [11] 92 % of control | dose: 200.0 mg/kg/injection, schedule: Q04DX002 (ip), vehicle: saline 111 % of control

From PubChem BioAssay AID256 (DTP/NCI, 2004)
